According to patent US9873680B2 (Gilead Sciences, Inc., priority 2014, dated 2018):

Tests used:
[1] = Test B: Cytotoxicity Assay; format: cell-based; details: human, uninfected MT-4 cells, CellTiter-Glo
Description: Test B: Cytotoxicity Assay Compound cytotoxicity and the corresponding CC50 values was determined using the same protocol as described in the antiviral assay (Test A) except that uninfected cells were used.

HIV-IIIb = assay: Test A: Antiviral Assay in MT4 Cells; format: cell-based, HIV-1; details: Human immunodeficiency virus 1, MT4, 120 h; 0.2 μM drug concentration; MT-4 cells infected with HIV-IIIb, 5 days; values normalized to 100%; average over time; read-out: % inhibition at 0.2 μM (percent inhibition of virus-induced cell killing)
Description: Test A: Antiviral Assay in MT4 Cells
MT-4 cells were next mixed with HIV-IIIb at an m.o.i of 0.003 for 1 hour, after which time 35 μL of virus/cell mixture (2000 cells) was immediately added to each well containing 40 μL of diluted compound. The plates were then incubated at 37° C. for 5 days. After 5 days of incubation, 25 μl of 2× concentrated CellTiter-Glo™ Reagent (catalog #G7571, Promega Biosciences, Inc., Madison, Wis.) was added to each well containing MT-4 cells. Cell lysis was carried out by incubating at room temperature for 10 min and then chemiluminescence was read.

SMILES	CC50 at 5 days [1] [µM]	inhibition at 0.2 µM (HIV-IIIb) [%]
Cn1cnc(C#Cc2ccc(-c3ccc(Cl)c4c(NS(C)(=O)=O)nn(C)c34)c([C@H](Cc3cc(F)cc(F)c3)NC(=O)Cn3nc(C(F)(F)F)c4c3C(F)(F)[C@@H]3C[C@H]43)n2)c1 [Compound 67, N—((S)-1-(3-(4-chloro-1-methyl-3-(methylsulfonamido)-1H-indazol-7-yl)-6-((1-methyl-1H-imidazol-4-yl)ethynyl)pyridin-2-yl)-2-(3,5-difluorophenyl)ethyl)-2-((3bS,4aR)-5,5-difluoro-3-(trifluoromethyl)-3b,4,4a,5-tetrahydro-1H-cyclopropa[3,4]cyclopenta[1,2-c]pyrazol-1-yl)acetamide]	> 53.2	87
Cn1nc(NS(C)(=O)=O)c2c(Cl)ccc(-c3ccc(C#CC4(O)CCCNC4)nc3[C@H](Cc3cc(F)cc(F)c3)NC(=O)Cn3nc(C(F)(F)F)c4c3C(F)(F)[C@@H]3C[C@H]43)c21 (stereo partly drawn) [Compound 75, N-((1S)-1-(3-(4-chloro-1-methyl-3-(methylsulfonamido)-1H-indazol-7-yl)-6-((3-hydroxypiperidin-3-yl)ethynyl)pyridin-2-yl)-2-(3,5-difluorophenyl)ethyl)-2-((3bS,4aR)-5,5-difluoro-3-(trifluoromethyl)-3b,4,4a,5-tetrahydro-1H-cyclopropa[3,4]cyclopenta[1,2-c]pyrazol-1-yl)acetamide]	5.59	81
Cn1nc(NS(C)(=O)=O)c2c(Cl)ccc(-c3ccc(C#CC4(C)OCCn5ccnc54)nc3[C@H](Cc3cc(F)cc(F)c3)NC(=O)Cn3nc(C(F)F)c4c3C(F)(F)[C@@H]3C[C@H]43)c21 (stereo partly drawn) [Compound 82, N-((1S)-1-(3-(4-chloro-1-methyl-3-(methylsulfonamido)-1H-indazol-7-yl)-6-((8-methyl-6,8-dihydro-5H-imidazo[2,1-c][1,4]oxazin-8-yl)ethynyl)pyridin-2-yl)-2-(3,5-difluorophenyl)ethyl)-2-((3bS,4aR)-3-(difluoromethyl)-5,5-difluoro-3b,4,4a,5-tetrahydro-1H-cyclopropa[3,4]cyclopenta[1,2-c]pyrazol-1-yl)acetamide]	29.6	90
O=C(Cn1nc(C(F)F)c2c1C(F)(F)CCC2(F)F)N[C@@H](Cc1cc(F)cc(F)c1)c1nc(C#Cc2ccc3[nH]c(=O)ccc3c2)ccc1-c1cnc2[nH]ccc2c1 [Compound 5, (S)-2-(3-(difluoromethyl)-4,4,7,7-tetrafluoro-4,5,6,7-tetrahydro-1H-indazol-1-yl)-N-(2-(3,5-difluorophenyl)-1-(6-((2-oxo-1,2-dihydroquinolin-6-yl)ethynyl)-3-(1H-pyrrolo[2,3-b]pyridin-5-yl)pyridin-2-yl)ethyl)acetamide]	> 53.2	5
Cn1nc(N)c2cccc(-c3ccc(C#CC4(O)CCC4)nc3[C@H](Cc3cc(F)cc(F)c3)NC(=O)Cn3nc(C(F)(F)F)c4c3C(F)(F)[C@@H]3C[C@H]43)c21 [Compound 25, N—((S)-1-(3-(3-amino-1-methyl-1H-indazol-7-yl)-6-((1-hydroxy-cyclobutyl)ethynyl)pyridin-2-yl)-2-(3,5-difluorophenyl)ethyl)-2-((3bS,4aR)-5,5-difluoro-3-(trifluoromethyl)-3b,4,4a,5-tetrahydro-1H-cyclopropa[3,4]cyclopenta[1,2-c]pyrazol-1-yl)acetamide]	9.92	91
